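In this assay, cells in 96-well plates receive the compound at five concentrations for 48 hours. Endpoints are linearly interpolated between the surrounding concentrations. Here, GI50 denotes the concentration required for 50% inhibition of growth. Definition used: TGI = concentration required for complete inhibition of growth.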
Tests used:
Assay in all cases: NCI-60 cell line screen, 48 h
[1] = system: 786-0 renal
[2] = system: A498 renal
[3] = system: A549 NSCLC
[4] = system: ACHN renal
[5] = system: BT-549 breast
[6] = system: CAKI-1 renal
[7] = system: CCRF-CEM leukemia
[8] = system: COLO 205 colon
[9] = system: DU-145 prostate
[10] = system: HCC-2998 colon
[11] = system: HCT-116 colon
[12] = system: HCT-15 colon
[13] = system: HL-60(TB) leukemia
[14] = system: HOP-62 NSCLC
[15] = system: HOP-92 NSCLC
[16] = system: HS 578T breast
[17] = system: HT29 colon
[18] = system: IGROV1 ovarian
[19] = system: K-562 leukemia
[20] = system: KM12 colon
[21] = system: LOX IMVI melanoma
[22] = system: M14 melanoma
[23] = system: MALME-3M melanoma
[24] = system: MCF7 breast
[25] = system: MDA-MB-231 breast
[26] = system: MDA-MB-435
[27] = system: MOLT-4 leukemia
[28] = system: NCI-H226 lung
[29] = system: NCI-H23 lung
[30] = system: NCI-H460 lung
[31] = system: NCI-H522 lung
[32] = system: NCI/ADR-RES ovarian
[33] = system: OVCAR-3 ovarian
[34] = system: OVCAR-4 ovarian
[35] = system: OVCAR-5 ovarian
[36] = system: OVCAR-8 ovarian
[37] = system: PC-3 prostate
[38] = system: RPMI-8226 leukemia
[39] = system: RXF 393 renal
[40] = system: SF-268 CNS
[41] = system: SF-295 CNS
[42] = system: SF-539 CNS
[43] = system: SK-MEL-2 melanoma
[44] = system: SK-MEL-28 melanoma
[45] = system: SK-MEL-5 melanoma
[46] = system: SK-OV-3 ovarian
[47] = system: SN12C renal
[48] = system: SNB-19 CNS
[49] = system: SNB-75 CNS
[50] = system: SW-620 colon
[51] = system: T-47D breast
[52] = system: TK-10 renal
[53] = system: U251 CNS
[54] = system: UACC-257 melanoma
[55] = system: UACC-62 melanoma
[56] = system: UO-31 renal

Which GI50 [1] does the source give for `O=C1NC(=NCc2c(Cl)cccc2Cl)S/C1=C\c1ccc2ncccc2c1` here?
Its GI50 is 9.79 µM.

And the TGI [1]?
Its TGI is greater than 25 µM.

What about the GI50 [2] of the same compound?
The GI50 was 4.47 µM.

And the TGI [2]?
Its TGI is greater than 25 µM.

What about the GI50 [3] of the same compound?
Its GI50 is 10.2 µM.

What about the TGI [3] of the same compound?
Its TGI is greater than 25 µM.

And the GI50 [4]?
Its GI50 is 8.11 µM.

What about the TGI [4] of the same compound?
Its TGI is greater than 25 µM.

And the GI50 [5]?
The GI50 was 6.24 µM.

What about the TGI [5] of the same compound?
Its TGI is greater than 25 µM.

What about the GI50 [6] of the same compound?
Its GI50 is 11 µM.

And the TGI [6]?
Its TGI is greater than 25 µM.

What about the GI50 [7] of the same compound?
Its GI50 is 9.19 µM.

And the TGI [7]?
Its TGI is greater than 25 µM.

What about the GI50 [8] of the same compound?
Its GI50 is 14.7 µM.

What about the TGI [8] of the same compound?
The TGI was greater than 25 µM.

And the GI50 [9]?
Its GI50 is 6.3 µM.

What about the TGI [9] of the same compound?
Its TGI is greater than 25 µM.

And the GI50 [10]?
Its GI50 is greater than 25 µM.

What about the TGI [10] of the same compound?
Its TGI is greater than 25 µM.

What about the GI50 [11] of the same compound?
Its GI50 is 6.15 µM.

And the TGI [11]?
The TGI was greater than 25 µM.

What about the GI50 [12] of the same compound?
The GI50 was 4.85 µM.

What about the TGI [12] of the same compound?
The TGI was greater than 25 µM.

What about the GI50 [13] of the same compound?
The GI50 was 5.35 µM.

And the TGI [13]?
The TGI was greater than 25 µM.

What about the GI50 [14] of the same compound?
Its GI50 is 7.03 µM.

And the TGI [14]?
Its TGI is greater than 19.9 µM.

And the GI50 [15]?
The GI50 was 4.25 µM.

And the TGI [15]?
The TGI was 20.2 µM.

And the GI50 [16]?
The GI50 was 8.78 µM.

And the TGI [16]?
Its TGI is greater than 21.1 µM.

And the GI50 [17]?
The GI50 was 24.9 µM.

And the TGI [17]?
Its TGI is greater than 25 µM.

And the GI50 [18]?
The GI50 was 13.1 µM.

What about the TGI [18] of the same compound?
The TGI was greater than 25 µM.

What about the GI50 [19] of the same compound?
The GI50 was 8.91 µM.

What about the TGI [19] of the same compound?
The TGI was greater than 25 µM.

What about the GI50 [20] of the same compound?
The GI50 was 16 µM.

And the TGI [20]?
The TGI was greater than 25 µM.

What about the GI50 [21] of the same compound?
The GI50 was 13.7 µM.

What about the TGI [21] of the same compound?
Its TGI is greater than 25 µM.

What about the GI50 [22] of the same compound?
Its GI50 is greater than 23.3 µM.

And the TGI [22]?
The TGI was greater than 25 µM.

What about the GI50 [23] of the same compound?
The GI50 was 10.6 µM.

What about the TGI [23] of the same compound?
The TGI was greater than 25 µM.

What about the GI50 [24] of the same compound?
The GI50 was 16.1 µM.

What about the TGI [24] of the same compound?
The TGI was greater than 25 µM.

What about the GI50 [25] of the same compound?
The GI50 was 16.3 µM.

What about the TGI [25] of the same compound?
Its TGI is greater than 25 µM.

And the GI50 [26]?
The GI50 was 9.24 µM.

And the TGI [26]?
The TGI was greater than 25 µM.

What about the GI50 [27] of the same compound?
Its GI50 is 12.9 µM.

What about the TGI [27] of the same compound?
The TGI was greater than 25 µM.

What about the GI50 [28] of the same compound?
Its GI50 is 6.61 µM.

What about the TGI [28] of the same compound?
The TGI was greater than 25 µM.

And the GI50 [29]?
Its GI50 is 11.6 µM.

What about the TGI [29] of the same compound?
The TGI was greater than 25 µM.

And the GI50 [30]?
Its GI50 is 8.31 µM.

And the TGI [30]?
Its TGI is greater than 25 µM.

And the GI50 [31]?
The GI50 was 3.99 µM.

What about the TGI [31] of the same compound?
Its TGI is 8.77 µM.

What about the GI50 [32] of the same compound?
Its GI50 is 12 µM.

What about the TGI [32] of the same compound?
Its TGI is greater than 25 µM.

And the GI50 [33]?
The GI50 was 8.22 µM.

What about the TGI [33] of the same compound?
The TGI was greater than 25 µM.

What about the GI50 [34] of the same compound?
Its GI50 is 6.53 µM.

And the TGI [34]?
The TGI was greater than 24 µM.

And the GI50 [35]?
Its GI50 is greater than 19.5 µM.

What about the TGI [35] of the same compound?
Its TGI is greater than 25 µM.

What about the GI50 [36] of the same compound?
Its GI50 is 10.6 µM.

What about the TGI [36] of the same compound?
The TGI was greater than 25 µM.

And the GI50 [37]?
The GI50 was 13.4 µM.

And the TGI [37]?
Its TGI is greater than 25 µM.

What about the GI50 [38] of the same compound?
The GI50 was 9.29 µM.

And the TGI [38]?
The TGI was greater than 25 µM.

What about the GI50 [39] of the same compound?
The GI50 was 6.05 µM.

What about the TGI [39] of the same compound?
Its TGI is greater than 24.2 µM.

And the GI50 [40]?
Its GI50 is 6.71 µM.

And the TGI [40]?
The TGI was greater than 25 µM.

And the GI50 [41]?
Its GI50 is greater than 12.1 µM.

And the TGI [41]?
Its TGI is greater than 25 µM.

And the GI50 [42]?
The GI50 was 3.59 µM.

What about the TGI [42] of the same compound?
The TGI was 10.7 µM.

And the GI50 [43]?
Its GI50 is 9.12 µM.

And the TGI [43]?
Its TGI is 24.5 µM.

And the GI50 [44]?
Its GI50 is greater than 22.9 µM.

And the TGI [44]?
Its TGI is greater than 25 µM.

What about the GI50 [45] of the same compound?
Its GI50 is 13.9 µM.

And the TGI [45]?
Its TGI is greater than 25 µM.

What about the GI50 [46] of the same compound?
Its GI50 is 7.53 µM.

And the TGI [46]?
The TGI was greater than 25 µM.

And the GI50 [47]?
Its GI50 is 14.1 µM.

And the TGI [47]?
The TGI was greater than 25 µM.

And the GI50 [48]?
The GI50 was 11.3 µM.

What about the TGI [48] of the same compound?
Its TGI is greater than 25 µM.

What about the GI50 [49] of the same compound?
Its GI50 is 1140 nM.

What about the TGI [49] of the same compound?
The TGI was greater than 25 µM.

And the GI50 [50]?
The GI50 was 10.6 µM.

And the TGI [50]?
Its TGI is greater than 25 µM.

And the GI50 [51]?
The GI50 was 9.64 µM.

What about the TGI [51] of the same compound?
The TGI was greater than 25 µM.

What about the GI50 [52] of the same compound?
Its GI50 is 3.14 µM.

What about the TGI [52] of the same compound?
The TGI was greater than 22.9 µM.

And the GI50 [53]?
Its GI50 is 8.17 µM.

What about the TGI [53] of the same compound?
Its TGI is greater than 25 µM.

And the GI50 [54]?
Its GI50 is greater than 13.7 µM.

And the TGI [54]?
The TGI was greater than 25 µM.

What about the GI50 [55] of the same compound?
The GI50 was 15.9 µM.

What about the TGI [55] of the same compound?
Its TGI is greater than 25 µM.

What about the GI50 [56] of the same compound?
The GI50 was 4.72 µM.

What about the TGI [56] of the same compound?
The TGI was 21.1 µM.

— PubChem BioAssay (NCI)
